Source: patent US6054435A, “6-O-substituted macrolides having antibacterial activity” (priority 1999, dated 2000)
Values after ≈ are worked out from the molar mass of the structure shown.

What was measured:
Test in all cases: in vitro antibacterial activity (MIC), agar dilution
Assay type in all cases: cell-based
Escherichia coli SS = settings: organism code RR; BHI agar, 35-37° C., 20 to 24 hours; unit assumed
Summary of the method: (§1)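 Plates of BHI agar were prepared with twelve aqueous dilutions of compound, then inoculated at 1:100 dilution, or 1:10 for slow growers like Streptococcus. After incubation they were inspected, and the lowest concentration yielding no growth, slight haze or sparse colonies was recorded as MIC.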

[1] = tested on: Streptococcus pyogenes 930; settings: organism code MM; BHI agar, 35-37° C., 20 to 24 hours; unit assumed
Summary of the method: as §1

[2] = tested on: Mycobacterium smegmatis ATCC 114; settings: organism code UU; BHI agar, 35-37° C., 20 to 24 hours; unit assumed
Summary of the method: as §1

[3] = tested on: Streptococcus pyogenes PIU 2548; settings: organism code NN; BHI agar, 35-37° C., 20 to 24 hours; unit assumed
Summary of the method: as §1

[4] = tested on: Streptococcus Pneumonia 5649; settings: organism code ZZA; BHI agar, 35-37° C., 20 to 24 hours; unit assumed
Summary of the method: as §1

[5] = tested on: Staphylococcus aureus 1775; settings: organism code GG; BHI agar, 35-37° C., 20 to 24 hours; unit assumed
Summary of the method: as §1

[6] = tested on: Streptococcus Pneumonia GYR 1171; settings: organism code YY; BHI agar, 35-37° C., 20 to 24 hours; unit assumed
Summary of the method: as §1

[7] = tested on: Staphylococcus aureus ATCC 6538P; settings: organism code AA; BHI agar, 35-37° C., 20 to 24 hours; unit assumed
Summary of the method: as §1

[8] = tested on: Staphylococcus aureus A5177; settings: organism code BB; BHI agar, 35-37° C., 20 to 24 hours; unit assumed
Summary of the method: as §1

[9] = tested on: Nocardia Asteroides ATCC9970; settings: organism code VV; BHI agar, 35-37° C., 20 to 24 hours; unit assumed
Summary of the method: as §1

[10] = tested on: Micrococcus luteus ATCC 9341; settings: organism code OO; BHI agar, 35-37° C., 20 to 24 hours; unit assumed
Summary of the method: (§2)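 Agar dilution in BHI agar, twelve successive compound dilutions. Inoculum 1:100, or 1:10 for slow-growing strains (e.g. Streptococcus), replicator-spotted. Read by eye; MIC = lowest concentration with no growth, slight haze or sparsely isolated colonies relative to growth control.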

[11] = tested on: Staphylococcus aureus NCTC10649M; settings: organism code EE; BHI agar, 35-37° C., 20 to 24 hours; unit assumed
Summary of the method: as §1

[12] = tested on: Staphylococcus aureus CMX 642A; settings: organism code DD; BHI agar, 35-37° C., 20 to 24 hours; unit assumed
Summary of the method: as §1

[13] = tested on: Streptococcus Pneumonia 5979; settings: organism code ZZ; BHI agar, 35-37° C., 20 to 24 hours; unit assumed
Summary of the method: as §1

[14] = tested on: Enterococcus faecium ATCC 8043; settings: organism code II; BHI agar, 35-37° C., 20 to 24 hours; unit assumed
Summary of the method: as §1

[15] = tested on: Streptococcus Pneumonia ATCC6303; settings: organism code XX; BHI agar, 35-37° C., 20 to 24 hours; unit assumed
Summary of the method: as §1

[16] = tested on: Staphylococcus epidermidis 3519; settings: organism code HH; BHI agar, 35-37° C., 20 to 24 hours; unit assumed
Summary of the method: as §1

[17] = tested on: Streptococcus bovis A-5169; settings: organism code JJ; BHI agar, 35-37° C., 20 to 24 hours; unit assumed
Summary of the method: as §1

[18] = tested on: Haemophilis Influenzae DILL AMP R; settings: organism code WW; BHI agar, 35-37° C., 20 to 24 hours; unit assumed
Summary of the method: as §1

[19] = tested on: Streptococcus pyogenes EES61; settings: organism code LL; BHI agar, 35-37° C., 20 to 24 hours; unit assumed
Summary of the method: as §1

Escherichia coli JUHL = settings: organism code QQ; BHI agar, 35-37° C., 20 to 24 hours; unit assumed
Summary of the method: as §1

Escherichia coli DC-2 = settings: organism code SS; BHI agar, 35-37° C., 20 to 24 hours; unit assumed
Summary of the method: as §1

[20] = tested on: Micrococcus luteus ATCC 4698; settings: organism code PP; BHI agar, 35-37° C., 20 to 24 hours; unit assumed
Summary of the method: as §2

Candida albicans CCH 442 = settings: organism code TT; BHI agar, 35-37° C., 20 to 24 hours; unit assumed
Summary of the method: as §1

[21] = tested on: Staphylococcus aureus CMX 553; settings: organism code FF; BHI agar, 35-37° C., 20 to 24 hours; unit assumed
Summary of the method: as §1

[22] = tested on: Staphylococcus aureus A-5278; settings: organism code CC; BHI agar, 35-37° C., 20 to 24 hours; unit assumed
Summary of the method: as §1

[23] = tested on: Streptococcus agalactiae CMX 508; settings: organism code KK; BHI agar, 35-37° C., 20 to 24 hours; unit assumed
Summary of the method: as §1

Structure (SMILES)	MIC (Escherichia coli SS) [µg/mL]	MIC [1] [µg/mL]	MIC [2] [µg/mL]	MIC [3] [µg/mL]	MIC [4] [µg/mL]	MIC [5] [µg/mL]	MIC [6] [µg/mL]	MIC [7] [µg/mL]	MIC [8] [µg/mL]	MIC [9] [µg/mL]	MIC [10] [µg/mL]	MIC [11] [µg/mL]	MIC [12] [µg/mL]	MIC [13] [µg/mL]	MIC [14] [µg/mL]	MIC [15] [µg/mL]	MIC [16] [µg/mL]	MIC [17] [µg/mL]	MIC [18] [µg/mL]	MIC [19] [µg/mL]	other results
CC[C@H]1OC(=O)[C@H](C)C(=O)[C@H](C)[C@@H](O[C@@H]2O[C@H](C)C[C@H](N(C)C)[C@H]2O)[C@](C)(OCC#Cc2ccc(-c3cc4ccccc4s3)s2)C[C@@H](C)C(=O)[C@H](C)[C@H]2NC(=O)O[C@@]21C [Example 34]	1.56 (≈ 1.83 µM)	1.56 (≈ 1.83 µM)	0.39 (≈ 0.458 µM)	0.39 (≈ 0.458 µM)	2 (≈ 2.35 µM)	12.5 (≈ 14.7 µM)	0.25 (≈ 0.294 µM)	0.39 (≈ 0.458 µM)	0.2 (≈ 0.235 µM)	0.39 (≈ 0.458 µM)	0.02 (≈ 0.0235 µM)	0.2 (≈ 0.235 µM)	0.39 (≈ 0.458 µM)	8 (≈ 9.4 µM)	0.2 (≈ 0.235 µM)	0.25 (≈ 0.294 µM)	0.39 (≈ 0.458 µM)	0.02 (≈ 0.0235 µM)	16 (≈ 18.8 µM)	0.02 (≈ 0.0235 µM)	MIC (Escherichia coli JUHL): > 100 µg/mL; MIC (Escherichia coli DC-2): > 100 µg/mL; MIC [20]: 0.2 µg/mL (≈ 0.235 µM); MIC (Candida albicans CCH 442): > 100 µg/mL; MIC [21]: 0.2 µg/mL (≈ 0.235 µM); MIC [22]: 50 µg/mL (≈ 58.7 µM); MIC [23]: 0.02 µg/mL (≈ 0.0235 µM)
CC[C@H]1OC(=O)[C@H](C)C(=O)[C@H](C)[C@@H](O[C@@H]2O[C@H](C)C[C@H](N(C)C)[C@H]2O)[C@](C)(OC/C=C/c2cncc(-n3ccnc3)c2)C[C@@H](C)C(=O)[C@H](C)[C@H]2NC(=O)O[C@@]21C [Example 37]	0.39 (≈ 0.499 µM)	25 (≈ 32 µM)	3.1 (≈ 3.96 µM)	0.39 (≈ 0.499 µM)	2 (≈ 2.56 µM)	> 100	≤ 0.004	0.1 (≈ 0.128 µM)	0.1 (≈ 0.128 µM)	0.1 (≈ 0.128 µM)	0.01 (≈ 0.0128 µM)	0.2 (≈ 0.256 µM)	0.1 (≈ 0.128 µM)	> 128	0.05 (≈ 0.0639 µM)	≤ 0.004	0.1 (≈ 0.128 µM)	0.01 (≈ 0.0128 µM)	4 (≈ 5.12 µM)	0.02 (≈ 0.0256 µM)	MIC (Escherichia coli JUHL): 50 µg/mL (≈ 63.9 µM); MIC (Escherichia coli DC-2): 50 µg/mL (≈ 63.9 µM); MIC [20]: 0.2 µg/mL (≈ 0.256 µM); MIC (Candida albicans CCH 442): > 100 µg/mL; MIC [21]: 0.1 µg/mL (≈ 0.128 µM); MIC [22]: > 100 µg/mL; MIC [23]: 0.02 µg/mL (≈ 0.0256 µM)
CC[C@H]1OC(=O)[C@H](C)C(=O)[C@H](C)[C@@H](O[C@@H]2O[C@H](C)C[C@H](N(C)C)[C@H]2O)[C@](C)(OC/C=C/c2ccc3ncc(Br)cc3c2)C[C@@H](C)C(=O)[C@H](C)[C@H]2NC(=O)O[C@@]21C [Example 38]	0.78 (≈ 0.923 µM)	3.1 (≈ 3.67 µM)	0.39 (≈ 0.462 µM)	0.2 (≈ 0.237 µM)	0.25 (≈ 0.296 µM)	100 (≈ 118 µM)	0.03 (≈ 0.0355 µM)	0.2 (≈ 0.237 µM)	0.2 (≈ 0.237 µM)	0.05 (≈ 0.0592 µM)	0.05 (≈ 0.0592 µM)	0.2 (≈ 0.237 µM)	0.2 (≈ 0.237 µM)	2 (≈ 2.37 µM)	0.05 (≈ 0.0592 µM)	0.03 (≈ 0.0355 µM)	0.2 (≈ 0.237 µM)	≤ 0.005	2 (≈ 2.37 µM)	0.02 (≈ 0.0237 µM)	MIC (Escherichia coli JUHL): 100 µg/mL (≈ 118 µM); MIC (Escherichia coli DC-2): > 100 µg/mL; MIC [20]: 0.2 µg/mL (≈ 0.237 µM); MIC (Candida albicans CCH 442): > 100 µg/mL; MIC [21]: 0.2 µg/mL (≈ 0.237 µM); MIC [22]: 100 µg/mL (≈ 118 µM); MIC [23]: 0.02 µg/mL (≈ 0.0237 µM)
CC[C@H]1OC(=O)[C@H](C)C(=O)[C@H](C)[C@@H](O[C@@H]2O[C@H](C)C[C@H](N(C)C)[C@H]2O)[C@](C)(OC/C=C/c2ccc3ncc(-c4ccco4)cc3c2)C[C@@H](C)C(=O)[C@H](C)[C@H]2NC(=O)O[C@@]21C [Example 39]	0.78 (≈ 0.937 µM)	6.2 (≈ 7.45 µM)	0.39 (≈ 0.469 µM)	0.2 (≈ 0.24 µM)	0.25 (≈ 0.3 µM)	> 100	0.03 (≈ 0.0361 µM)	0.2 (≈ 0.24 µM)	0.2 (≈ 0.24 µM)	0.1 (≈ 0.12 µM)	0.02 (≈ 0.024 µM)	0.2 (≈ 0.24 µM)	0.2 (≈ 0.24 µM)	2 (≈ 2.4 µM)	0.1 (≈ 0.12 µM)	0.06 (≈ 0.0721 µM)	0.2 (≈ 0.24 µM)	0.01 (≈ 0.012 µM)	4 (≈ 4.81 µM)	0.01 (≈ 0.012 µM)	MIC (Escherichia coli JUHL): > 100 µg/mL; MIC (Escherichia coli DC-2): > 100 µg/mL; MIC [20]: 0.2 µg/mL (≈ 0.24 µM); MIC (Candida albicans CCH 442): > 100 µg/mL; MIC [21]: 0.2 µg/mL (≈ 0.24 µM); MIC [22]: > 100 µg/mL; MIC [23]: 0.01 µg/mL (≈ 0.012 µM)
